Where two headings read alike, the source gives them in different places.
Columns and labels:
[1] = target: T1, wild-type EGFR (WT-EGFR) (Homo sapiens, UniProt P00533); test: TR-FRET fluorescent probe displacement assay; assay type: binding; settings: TR-FRET, n > 3
T1 construct: made in house; host or cells: SF9 insect cells (MultiBac)
Experimental: Compounds (dissolved to 100 mM in DMSO) were dispensed into black low volume 384 well assay plates (Corning) over a final concentration range of 100,000, 30,000, 10,000, 3000, 1000, 300, 100, 30, 10, and 3 nM using an Echo 550 (Labcyte). Positive control compound and DMSO as a negative control were dispensed into the first and last well, respectively. Each well was backfilled with DMSO to a final volume of 200 nL, resulting in final assay DMSO concentrations of 1%. […] The data were analyzed using Graphpad Prism/Dotmatics Studies Software. Assays conducted in technical replicate and repeated as a biological duplicate.

[2] = target: recombinant doubly mutated EGFR L858R, T790M kinase domain (mLT-EGFR) (Homo sapiens, UniProt P00533, L858R/T790M); test: Kinetic analysis (AssayQuant); assay type: biochemical; settings: read-out: KI app
Experimental: Measurement of K I, K inact and K inact/K I was carried out by AssayQuant Technologies inc.

[3] = system: EGFR phosphorylation (Tyr1068) in H1975 (L858R, T790M) cells; test: Western blot of EGFR phosphorylation; assay type: cell-based; settings: H1975, 4 h exposure
Experimental: Cells, seeded on the previous day, were incubated with test compound at the indicated concentrations or DMSO (0.1%) for 4 h. […] Preparation of lysates and Western blotting was performed twice as independent experiments.

[4] = system: pERK1/2 phosphorylation in H1975 (L858R, T790M) cells; test: Western blot of ERK1/2 phosphorylation; assay type: cell-based; settings: H1975, 4 h exposure
Experimental: Cells, seeded on the previous day, were incubated with test compound at the indicated concentrations or DMSO (0.1%) for 4 h. Cells were lysed in Phosphosafe extraction buffer (Merck, Cat. No. 71296) combined with cOmplete Protease Inhibitor Cocktail (Merck, Cat. No. 4693116001) prepared as per the manufacturer’s instructions. Protein concentrations were determined using BCA Protein Assay Kit (Thermo Scientific, Cat. No. 23227). Preparation of lysates and Western blotting was performed twice as independent experiments.
Samples were prepared by diluting lysates in PBS to the desired concentration and before adding 4X XT sample buffer. Samples were then denatured at 98 °C for 5 min and then centrifuged to remove the residue. […] The quality of transfer was assessed using Ponceau S Stain (Sigma-Aldrich Cat. No. p7170).
Primary antibodies raised to EGFR (CST Cat. No. 4267), phospho-EGFR (CST Cat. No. 3777), phospho-p44/42 MAPK(ERK1/2) (CST Cat. No. 9101S) and p44/42 MAPK (CST Cat. No. 9102S) were diluted (1:1000) in 5% BSA w/v. Loading control antibodies were prepared in 5% milk w/v with 1× TBS/T (0.1 v/v) solution at a determined optimum concentration.
Proteins were detected using Clarity ECL substrate (Bio-Rad) and imaged using a Licor Odyssey FC.

[5] = system: BaF3 EGFR L858R/T790M cells; test: Ba/F3 growth inhibition (CellTiter Glo); assay type: cell-based, Murine; settings: BaF3, absence of IL-3, 72 h, read-out: LT: L858R/T790M GI50
Experimental: (§1) Growth inhibition in Ba/F3 cell lines were assessed in a 384-well format by CellTiter Glo assay (Promega) using the manufacturer’s recommended protocol. Cells were seeded on the day of compound addition and assessed following 72 h incubation including a vehicle only control. Ba/F3 EGFR-WT cells required supplementation with EGF (100 ng/mL, ThermoFisher, Cat No. PHG0311).

[6] = system: BaF3 EGFR L858R/T790M/C775A cells; test: Ba/F3 growth inhibition (CellTiter Glo); assay type: cell-based, Murine; settings: Mus musculus, BaF3, absence of IL-3, 72 h, read-out: LTC2: L858R/T790M/C775A GI50
Experimental: as §1

[7] = system: BaF3 EGFR WT cells; test: Ba/F3 growth inhibition (CellTiter Glo); assay type: cell-based, Murine; settings: Mus musculus, 72 h
Experimental: as §1

[8] = system: BaF3 EGFR del19/T790M cells; test: Ba/F3 growth inhibition (CellTiter Glo); assay type: cell-based, Murine; settings: Mus musculus, BaF3, absence of IL-3, 72 h, read-out: dT: del19/T790M GI50
Experimental: as §1

[9] = system: A431 (WT-EGFR) cells; test: Adherent cell growth inhibition (CyQUANT); assay type: cell-based; settings: Homo sapiens, A-431; replenishment of compound every 72 h
Experimental: (§2) For adherent cell assays, each cell line was plated on day 0 in a 96-well plate at a density known to allow for exponential growth over 72 h. After 24 h, the compounds were diluted to the required concentrations in DMEM + 10% FBS media, maintaining a consistent final DMSO concentration of 0.1%. […] Growth inhibition was then assessed using a CyQUANT Direct Cell Proliferation assay (Invitrogen Cat No. C35011) following the manufacturer’s instructions. Fluorescence intensity (ex/em 480/520 nm) values were acquired using a PHERAstar microplate reader reader (BMG Labtech) and values were expressed as a percentage of the average DMSO treated value.

[10] = system: H1975 (L858R, T790M) cells; test: Adherent cell growth inhibition (CyQUANT); assay type: cell-based; settings: Homo sapiens, NCI-H1975; replenishment of compound every 72 h; read-out: H1975 EGFR GI50
Experimental: as §2

[11] = target: mLTC-EGFR (Homo sapiens, UniProt P00533, C797S/L858R/T790M); test: Intact protein mass spectrometry, covalent adduct formation; assay type: binding; settings: intact protein mass spectrometry
[12] = system: panel of 394 kinases; test: Kinase selectivity panel, summary; assay type: binding; settings: 1.0 μM
[13] = system: FLT3; test: Kinase selectivity panel; assay type: binding; settings: 1.0 µM
[14] = system: TYK2; test: Kinase selectivity panel; assay type: binding; settings: 1.0 µM

For `C#Cc1cc(=O)n(-c2ccccc2)c2nc(Nc3ccc(N(C)CCN(C)C)cc3)ncc12` [Compound 7, 2-((4-((2-(Dimethylamino)ethyl)(methyl)amino)phenyl)amino)-5-ethynyl-8-phenylpyrido[2,3-d]pyrimidin-7(8H)-one], the IC50 ([1]; read-out: WT-EGFR IC50) was 200 nM, the IC50 ([1]; read-out: WT-EGFR pIC50 ± std dev (converted)) was 200 nM and the Ki [2] was 22 ± 1.3 nM. For the same molecule, the “concentration eliciting dose-dependent reduction in EGFR phosphorylation (Western blot)” value [3] was no less than 100 nM, the “reduction in ERK1/2 phosphorylation (Western blot)” value [4] was “concomitant reduction in ERK1/2 phosphorylation” and the GI50 [5] was less than 100 nM. For the same molecule, the GI50 ([5]; Mus musculus, Ba/F3 EGFR, 72 h) was 50 ± 3.2 nM, the GI50 [6] was 1500 nM and the GI50 [7] was 1100 nM. It also gave a GI50 [8] of 49 ± 6 nM, a GI50 [9] of 2700 ± 1100 nM and a GI50 [10] of 1100 ± 1100 nM. For the same molecule, the “covalent adduct formation, in words” value [11] was “formed only a single adduct”, the “number of kinases showing >75% inhibition” value [12] was 10 and the “Mean (Percent Control)” value [13] was 15 Percent Control. For the same molecule, the “Mean (Percent Control)” value [14] was 58.5 Percent Control.

— publication PMC12794186, “Covalent Alkynylpyridopyrimidinones Targeting Cysteine 775 of the Epidermal Growth Factor Receptor Overcome Resistance to Current Therapies” (Journal of Medicinal Chemistry, 2025)
